{
  "source": "paper PMC4386773",
  "about": "(International Journal of Nanomedicine, 2015)",
  "key": {"[1]": {"assay": "Nonparticulate PBPK modeling of SNX-2112 disposition in rats", "format": "in vivo", "details": "estimated by nonparticulate PBPK modeling"}, "[2]": {"assay": "Solubility of SNX-2112 in water and oil", "format": "physicochemical"}, "[3]": {"details": "after oral administration; cited from earlier work"}},
  "note": "Marks after values point to notes of the source that are not given here.",
  "data": [
    {"smiles": "CC1(C)CC(=O)c2c(C(F)(F)F)nn(-c3ccc(C(N)=O)c(N[C@H]4CC[C@H](O)CC4)c3)c2C1", "note": "[SNX-2112]", "values": [
      {"measurement": "CLH (hepatic clearance)", "setting": "[1]", "result": "0.0246 ^a L/h"},
      {"measurement": "solubility", "setting": "[2]; soybean oil, oil or lipid", "result": 5, "unit": "µg/mL"},
      {"measurement": "solubility", "setting": "[2]; water", "result": 8, "unit": "µg/mL"},
      {"measurement": "oral bioavailability", "setting": "[3]", "result": "hardly bioavailable"}
    ]}
  ]
}
